Reference: PubChem BioAssay (NCI)
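Results reflect a 48-hour exposure of cells in 96-well plates to compound at five concentrations. Definition used: TGI = concentration required for complete inhibition of growth.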

Experiments:
Test in all cases: NCI tumour cell line growth inhibition, 48 h
XF 498 CNS = tested on: XF 498 CNS
A549 NSCLC = tested on: A549 NSCLC
HCT-15 colon = tested on: HCT-15 colon
LXFL 529 NSCLC = tested on: LXFL 529 NSCLC
HOP-18 NSCLC = tested on: HOP-18 NSCLC
KM12 colon = tested on: KM12 colon
M14 melanoma = tested on: M14 melanoma
UACC-257 melanoma = tested on: UACC-257 melanoma
A498 renal = tested on: A498 renal
HOP-62 NSCLC = tested on: HOP-62 NSCLC
EKVX NSCLC = tested on: EKVX NSCLC
DMS 273 small cell lung = tested on: DMS 273 small cell lung
MOLT-4 leukemia = tested on: MOLT-4 leukemia
SR leukemia = tested on: SR leukemia
SNB-19 CNS = tested on: SNB-19 CNS
ACHN renal = tested on: ACHN renal
NCI-H226 lung = tested on: NCI-H226 lung
SNB-78 CNS = tested on: SNB-78 CNS
SK-OV-3 ovarian = tested on: SK-OV-3 ovarian
UO-31 renal = tested on: UO-31 renal
IGROV1 ovarian = tested on: IGROV1 ovarian
HL-60(TB) leukemia = tested on: HL-60(TB) leukemia
OVCAR-5 ovarian = tested on: OVCAR-5 ovarian
RXF-631 renal = tested on: RXF-631 renal
NCI-H23 lung = tested on: NCI-H23 lung
SF-539 CNS = tested on: SF-539 CNS
HOP-92 NSCLC = tested on: HOP-92 NSCLC
UACC-62 melanoma = tested on: UACC-62 melanoma
SF-268 CNS = tested on: SF-268 CNS
HCC-2998 colon = tested on: HCC-2998 colon
SK-MEL-28 melanoma = tested on: SK-MEL-28 melanoma
SF-295 CNS = tested on: SF-295 CNS
M19-MEL melanoma = tested on: M19-MEL melanoma
U251 CNS = tested on: U251 CNS
OVCAR-3 ovarian = tested on: OVCAR-3 ovarian
TK-10 renal = tested on: TK-10 renal
CAKI-1 renal = tested on: CAKI-1 renal
OVCAR-4 ovarian = tested on: OVCAR-4 ovarian
COLO 205 colon = tested on: COLO 205 colon
786-0 renal = tested on: 786-0 renal
K-562 leukemia = tested on: K-562 leukemia
HCT-116 colon = tested on: HCT-116 colon
HT29 colon = tested on: HT29 colon
LOX IMVI melanoma = tested on: LOX IMVI melanoma
RPMI-8226 leukemia = tested on: RPMI-8226 leukemia
SK-MEL-2 melanoma = tested on: SK-MEL-2 melanoma
DMS 114 small cell lung = tested on: DMS 114 small cell lung
DLD-1 colon = tested on: DLD-1 colon
SW-620 colon = tested on: SW-620 colon
NCI-H460 lung = tested on: NCI-H460 lung
OVCAR-8 ovarian = tested on: OVCAR-8 ovarian
RXF 393 renal = tested on: RXF 393 renal
NCI-H522 lung = tested on: NCI-H522 lung
SK-MEL-5 melanoma = tested on: SK-MEL-5 melanoma
KM20L2 colon = tested on: KM20L2 colon
MALME-3M melanoma = tested on: MALME-3M melanoma
CCRF-CEM leukemia = tested on: CCRF-CEM leukemia
SNB-75 CNS = tested on: SNB-75 CNS
SN12C renal = tested on: SN12C renal
NCI/ADR-RES ovarian = tested on: NCI/ADR-RES ovarian
MCF7 breast = tested on: MCF7 breast
P388 leukemia = tested on: P388 leukemia

For `O=C1C=C(Br)C(=O)C(Br)=C1`, the TGI (XF 498 CNS) was > 100 µM, the TGI (A549 NSCLC) was > 100 µM and the TGI (HCT-15 colon) was > 100 µM. For the same compound, the TGI (LXFL 529 NSCLC) was > 100 µM, the TGI (HOP-18 NSCLC) was > 100 µM and the TGI (KM12 colon) was > 100 µM. The TGI (M14 melanoma) was > 100 µM, the TGI (UACC-257 melanoma) was > 100 µM and the TGI (A498 renal) was > 100 µM. For the same compound, the TGI (HOP-62 NSCLC) was > 100 µM, the TGI (EKVX NSCLC) was > 100 µM and the TGI (DMS 273 small cell lung) was > 100 µM. For the same compound, the TGI (MOLT-4 leukemia) was > 86.2 µM, the TGI (SR leukemia) was > 80.6 µM and the TGI (SNB-19 CNS) was > 100 µM. For the same compound, the TGI (ACHN renal) was > 100 µM, the TGI (NCI-H226 lung) was > 100 µM and the TGI (SNB-78 CNS) was > 100 µM. The TGI (SK-OV-3 ovarian) was > 100 µM, the TGI (UO-31 renal) was > 100 µM and the TGI (IGROV1 ovarian) was > 100 µM. For the same compound, the TGI (HL-60(TB) leukemia) was 54.9 µM, the TGI (OVCAR-5 ovarian) was > 100 µM and the TGI (RXF-631 renal) was > 100 µM. The TGI (NCI-H23 lung) was > 100 µM, the TGI (SF-539 CNS) was > 100 µM and the TGI (HOP-92 NSCLC) was > 100 µM. The TGI (UACC-62 melanoma) was > 100 µM, the TGI (SF-268 CNS) was > 100 µM and the TGI (HCC-2998 colon) was > 100 µM. The TGI (SK-MEL-28 melanoma) was > 100 µM, the TGI (SF-295 CNS) was > 100 µM and the TGI (M19-MEL melanoma) was > 89.6 µM. For the same compound, the TGI (U251 CNS) was > 100 µM, the TGI (OVCAR-3 ovarian) was > 100 µM and the TGI (TK-10 renal) was > 100 µM. For the same compound, the TGI (CAKI-1 renal) was > 100 µM, the TGI (OVCAR-4 ovarian) was > 100 µM and the TGI (COLO 205 colon) was > 100 µM. For the same compound, the TGI (786-0 renal) was > 100 µM, the TGI (K-562 leukemia) was > 100 µM and the TGI (HCT-116 colon) was > 100 µM. For the same compound, the TGI (HT29 colon) was > 100 µM, the TGI (LOX IMVI melanoma) was > 31.6 µM and the TGI (RPMI-8226 leukemia) was > 82.2 µM. For the same compound, the TGI (SK-MEL-2 melanoma) was > 100 µM, the TGI (DMS 114 small cell lung) was > 100 µM and the TGI (DLD-1 colon) was > 100 µM. The TGI (SW-620 colon) was > 100 µM, the TGI (NCI-H460 lung) was > 100 µM and the TGI (OVCAR-8 ovarian) was > 100 µM. The TGI (RXF 393 renal) was > 100 µM, the TGI (NCI-H522 lung) was > 100 µM and the TGI (SK-MEL-5 melanoma) was > 100 µM. The TGI (KM20L2 colon) was > 100 µM, the TGI (MALME-3M melanoma) was > 100 µM and the TGI (CCRF-CEM leukemia) was > 81.6 µM. The TGI (SNB-75 CNS) was > 100 µM and the TGI (SN12C renal) was > 100 µM.

For `C=C1CC(OC)(C(O)C(=O)N[C@H]2OCO[C@H]3C2O[C@H](C[C@@H](CO)OC)C(C)(C)C3OC)O[C@H](C)[C@@H]1C` (stereo partly drawn), the TGI (A549 NSCLC) was < 0.00932 µM, the TGI (HOP-18 NSCLC) was < 0.00932 µM and the TGI (UACC-257 melanoma) was < 0.00932 µM. For the same compound, the TGI (A498 renal) was < 0.00932 µM, the TGI (MOLT-4 leukemia) was > 93.2 µM and the TGI (SNB-19 CNS) was < 0.00932 µM. For the same compound, the TGI (NCI-H226 lung) was < 0.00932 µM, the TGI (SK-OV-3 ovarian) was < 0.00932 µM and the TGI (IGROV1 ovarian) was < 0.00932 µM. The TGI (UACC-62 melanoma) was < 0.00932 µM, the TGI (SF-295 CNS) was < 0.00932 µM and the TGI (M19-MEL melanoma) was < 0.00932 µM. For the same compound, the TGI (U251 CNS) was < 0.00932 µM, the TGI (NCI/ADR-RES ovarian) was 0.016 µM and the TGI (OVCAR-3 ovarian) was < 0.00932 µM. The TGI (CAKI-1 renal) was < 0.00932 µM, the TGI (OVCAR-4 ovarian) was < 0.00932 µM and the TGI (COLO 205 colon) was < 0.00932 µM. The TGI (K-562 leukemia) was > 93.2 µM, the TGI (HCT-116 colon) was < 0.00932 µM and the TGI (HT29 colon) was < 0.00932 µM. The TGI (LOX IMVI melanoma) was < 0.00932 µM, the TGI (RPMI-8226 leukemia) was < 0.00932 µM and the TGI (DLD-1 colon) was < 0.00932 µM. The TGI (SW-620 colon) was < 0.00932 µM, the TGI (NCI-H460 lung) was < 0.00932 µM and the TGI (MCF7 breast) was > 93.2 µM. The TGI (RXF 393 renal) was < 0.00932 µM, the TGI (SK-MEL-5 melanoma) was < 0.00932 µM and the TGI (KM20L2 colon) was < 0.00932 µM. The TGI (CCRF-CEM leukemia) was 0.0532 µM, the TGI (SNB-75 CNS) was < 0.00932 µM and the TGI (SN12C renal) was 0.0114 µM. The TGI (P388 leukemia) was > 93.2 µM.
